We go through one compound from BindingDB's records for doi:10.1016/j.bmcl.2006.05.062 (AstraZeneca, 2006).

The assay is described as follows: Inhibition of COX1-mediated platelet aggregation.

For the compound `COc1ccc2c(c1)c(CC(=O)O)c(C)n2-c1ccnc2cc(Cl)ccc12` [2-(1-(7-chloroquinolin-4-yl)-5-methoxy-2-methyl-1H-indol-3-yl)acetic acid], the concentration for half-maximal inhibition (IC50) (usually the point on the concentration scale where inhibition reaches its midpoint) was 0.04 µM.
